Experimental data: ChEMBL document CHEMBL2417444, “Synthesis and study of 1-ethyl-3-carbohydrazide and 3-[1-oxo-2-hydrazino-3-{p-toluenesulfon}]quinolone derivatives against bacterial infections” (2013)
In brackets after ≈: the same amount, converted by molar mass.

Columns and labels:
[1] = system: Salmonella typhi; assay: Ratio of norfloxacin MIC to compound MIC against Salmonella typhi; format: functional, Salmonella enterica subsp. enterica serovar Typhi
[2] = system: Staphylococcus aureus; assay: Antibacterial activity against Staphylococcus aureus by disc diffusion method; format: functional
[3] = system: Escherichia coli; assay: Antibacterial activity against enterotoxigenic Escherichia coli by disc diffusion method; format: functional
[4] = system: Salmonella typhi; assay: Antibacterial activity against Salmonella typhi by disc diffusion method; format: functional, Salmonella enterica subsp. enterica serovar Typhi; details: Salmonella enterica
[5] = system: Pseudomonas aeruginosa; assay: Antibacterial activity against Pseudomonas aeruginosa by disc diffusion method; format: functional

Compound	Ratio [1]	MIC [2]	MIC [3]	MIC [4]	MIC [5]
CCn1cc(C(=O)NN)c(=O)c2cc(Cl)ccc21	4	0.0625 µg/mL (≈ 0.235 µM)	0.25 µg/mL (≈ 0.941 µM)	0.0625 µg/mL (≈ 0.235 µM)	0.0625 µg/mL (≈ 0.235 µM)
CCn1cc(C(=O)NN)c(=O)c2cc(F)ccc21	4	0.0625 µg/mL (≈ 0.251 µM)	0.125 µg/mL (≈ 0.502 µM)	0.0625 µg/mL (≈ 0.251 µM)	0.0625 µg/mL (≈ 0.251 µM)
CCn1cc(C(=O)O)c(=O)c2cc(F)c(N3CCNCC3)cc21 [NORFLOXACIN]	–	0.0625 µg/mL (≈ 0.196 µM)	0.0625 µg/mL (≈ 0.196 µM)	0.25 µg/mL (≈ 0.783 µM)	0.0625 µg/mL (≈ 0.196 µM)
CCn1cc(C(=O)NNS(=O)(=O)c2ccc(C)cc2)c(=O)c2cc(F)c(Cl)cc21	4	0.0625 µg/mL (≈ 0.143 µM)	0.0625 µg/mL (≈ 0.143 µM)	0.0625 µg/mL (≈ 0.143 µM)	0.0625 µg/mL (≈ 0.143 µM)
O=C(O)c1cn(C2CC2)c2cc(N3CCNCC3)c(F)cc2c1=O [CIPROFLOXACIN]	–	0.0625 µg/mL (≈ 0.189 µM)	0.0625 µg/mL (≈ 0.189 µM)	0.0625 µg/mL (≈ 0.189 µM)	0.0625 µg/mL (≈ 0.189 µM)
CCn1cc(C(=O)NN)c(=O)c2cc(F)c(Cl)cc21	4	0.0625 µg/mL (≈ 0.22 µM)	0.0625 µg/mL (≈ 0.22 µM)	0.0625 µg/mL (≈ 0.22 µM)	0.0625 µg/mL (≈ 0.22 µM)
CCn1cc(C(=O)NN)c(=O)c2ccccc21	4	0.0625 µg/mL (≈ 0.27 µM)	0.0625 µg/mL (≈ 0.27 µM)	0.0625 µg/mL (≈ 0.27 µM)	0.0625 µg/mL (≈ 0.27 µM)
CCn1cc(C(=O)NNS(=O)(=O)c2ccc(C)cc2)c(=O)c2ccccc21	4	0.0625 µg/mL (≈ 0.162 µM)	0.125 µg/mL (≈ 0.324 µM)	0.0625 µg/mL (≈ 0.162 µM)	0.0625 µg/mL (≈ 0.162 µM)
CCn1cc(C(=O)NNS(=O)(=O)c2ccc(C)cc2)c(=O)c2ccc(Cl)cc21	2	0.0625 µg/mL (≈ 0.149 µM)	0.0625 µg/mL (≈ 0.149 µM)	0.125 µg/mL (≈ 0.298 µM)	0.0625 µg/mL (≈ 0.149 µM)
CCn1cc(C(=O)NNS(=O)(=O)c2ccc(C)cc2)c(=O)c2cc(Cl)ccc21	4	0.0625 µg/mL (≈ 0.149 µM)	0.0625 µg/mL (≈ 0.149 µM)	0.0625 µg/mL (≈ 0.149 µM)	0.0625 µg/mL (≈ 0.149 µM)
CCn1cc(C(=O)NN)c(=O)c2ccc(Cl)cc21	4	0.0625 µg/mL (≈ 0.235 µM)	0.0625 µg/mL (≈ 0.235 µM)	0.0625 µg/mL (≈ 0.235 µM)	0.0625 µg/mL (≈ 0.235 µM)
CCn1cc(C(=O)NNS(=O)(=O)c2ccc(C)cc2)c(=O)c2cc(F)ccc21	4	0.0625 µg/mL (≈ 0.155 µM)	0.0625 µg/mL (≈ 0.155 µM)	0.0625 µg/mL (≈ 0.155 µM)	0.0625 µg/mL (≈ 0.155 µM)
